Assay results reported in US20230391772A1, “METHODS AND COMPOSITIONS FOR TARGETED PROTEIN DEGRADATION” (Ranok Therapeutics (Hangzhou) Co. Ltd., priority 2020, published 2023).

Assays:
HSP90a protein = molecular target: T1, HSP90a protein (Homo sapiens, UniProt P07900); assay: HSP90α-binding fluorescent polarization (FP) assay, BODIPY-labeled RNK04010 probe; conditions: FP competition with RNK04010 (BODIPY-labeled), 5 nM, 300 min at 25° C.
T1 construct: purchased BPS Bioscience 50298
Protocol: HSP90α-Binding Fluorescent Polarization (FP) Assay
Binding of test compounds to HSP90a protein was measured by fluorescent polarization (FP) using the HSP90a (N-terminal) Assay Kit (BPS Bioscience, #50298), following the manufacturer's instructions, except as noted. Fluorescently labeled HSP90-binding compounds, either the provided FITC-geldanamycin (5 nM final concentration) or RNK04010, a triazolone-based HSP90 binding small molecule labeled with BODIPY through a piperizine-phenyl linker (5 nM final concentration) were employed. A 2.5-fold serial dilution of each test compound ranging from 20 μM to 5.2 nM was assayed for binding to HSP90a. After the final step of adding HSP90a protein to each assay well, plates were mixed by brief shaking, incubated at 25° C. for 120 min for FITC-geldanamycin or 300 min for RNK04010, and fluorescence was measured using a PerkinElmer EnVision Plate Reader.

[1] = test system: MIA PaCa-2 human pancreatic carcinoma; assay: MIA PaCa-2 CCK-8 proliferation assay; assay type: cell-based; conditions: Homo sapiens, MIA PaCa-2, 72 h, MIA PaCa-2 cells
Protocol: The following cancer cell lines were employed: BT-474 human breast carcinoma (ATCC, #HTB-20); MIA PaCa-2 human pancreatic carcinoma [2 copies KRAS(G12C)](ATCC, #CRL-1420); NCI-H23 human non-small cell lung cancer [1 copy KRAS(G12C)](ATCC, #CRL-5800); NCI-H358 human non-small cell lung cancer [1 copy KRAS(G12C)](ATCC, #CRL-5807); LU65A human lung carcinoma (Pharmaron, Beijing, China). Cell lines were cultured essentially according to ATCC and Pharmaron recommendations.
Cancer Cell Line Proliferation (CCK-8) Assays
3-fold serial dilutions of each test compound were prepared ranging from 20 μM to 1.02 nM.
% Inhibition=100−(D−B)/(S−B)*100%. • S: Absorbance of cells treated with DMSO • D: Absorbance of compound-treated cells • B: Absorbance of medium with DMSO without cells

SMILES	IC50 (HSP90a protein) [nM]	EC50 [1] [nM]
C=CC(=O)N1CCN(c2nc(OC[C@@H]3CCN(C(=O)c4ccc(Nc5cc(-n6nc(C(F)(F)F)c7c6CC(C)(C)CC7=O)ccc5C(N)=O)cc4)C3)nc3c2CCN(c2cccc4cccc(Cl)c24)C3)C[C@@H]1CC#N [Compound 181, 2-((4-((R)-3-(((4-((S)-4-acryloyl-3-(cyanomethyl)piperazin-1-yl)-7-(8-chloronaphthalen-1-yl)-5,6,7,8-tetrahydropyrido[3,4-d]pyrimidin-2-yl)oxy)methyl)pyrrolidine-1-carbonyl)phenyl)amino)-4-(6,6-dimethyl-4-oxo-3-(trifluoromethyl)-4,5,6,7-tetrahydro-1H-indazol-1-yl)benzamide]	> 1000	> 1000
C=CC(=O)N1CCN(c2nc(OC[C@@H]3CC[C@H](C(=O)N4CCN(C(=O)C5CCN(Cc6ccc(-n7c(O)nnc7-c7cc(C)c(O)cc7O)cc6)CC5)CC4)N3C)nc3c2CCN(c2cccc4cccc(Cl)c24)C3)C[C@@H]1CC#N [Compound 306, 2-[(2S)-4-[7-(8-chloronaphthalen-1-yl)-2-{[(2S,5R)-5-{4-[1-({4-[3-(2,4-dihydroxy-5-methylphenyl)-5-hydroxy-1,2,4-triazol-4-yl]phenyl}methyl)piperidine-4-carbonyl]piperazine-1-carbonyl}-1-methylpyrrolidin-2-yl]methoxy}-5H,6H,8H-pyrido [3,4-d]pyrimidin-4-yl]-1-(prop-2-enoyl)piperazin-2-yl]acetonitrile]	< 100	> 1000
C=CC(=O)N1CCN(c2nc(NCCC(=O)NCc3ccc(CN4CCC(Cc5ccc(-n6c(C(=O)NC(C)C)nnc6-c6cc(C(C)C)c(O)cc6O)cc5)CC4)cc3)nc3c2CCN(c2cc(O)cc4ccccc24)C3)CC1 [Compound 126, 4-(4-((1-(4-((3-((4-(4-acryloylpiperazin-1-yl)-7-(3-hydroxynaphthalen-1-yl)-5,6,7,8-tetrahydropyrido[3,4-d]pyrimidin-2-yl)amino)propanamido)methyl)benzyl)piperidin-4-yl)methyl)phenyl)-5-(2,4-dihydroxy-5-isopropylphenyl)-N-isopropyl-4H-1,2,4-triazole-3-carboxamide, trifluoroacetic acid]	100 to 1000	–
C=C(F)C(=O)N1CCN(c2nc(OCCN3CCN(C(=O)c4ccc(-n5c(O)nnc5-c5cc(C(C)C)c(O)cc5O)cc4)CC3)nc3c2CCN(c2cccc4cccc(Cl)c24)C3)C[C@@H]1CC#N [Compound 226]	< 100	> 1000
C=CC(=O)N1CCN(c2nc(OC[C@@H]3CC[C@H](C(=O)N4CCN(C(=O)C5CCN(Cc6ccc(-n7c(O)nnc7-c7cc(C(C)C)c(O)cc7O)cc6)CC5)CC4)N3C)nc3c2CCN(c2cccc4cccc(Cl)c24)C3)C[C@@H]1CC#N [Compound 305, 2-[(2S)-4-[7-(8-chloronaphthalen-1-yl)-2-{[(2S,5R)-5-{4-[1-({4-[3-(2,4-dihydroxy-5-isopropylphenyl)-5-hydroxy-1,2,4-triazol-4-yl]phenyl}methyl)piperidine-4-carbonyl]piperazine-1-carbonyl}-1-methylpyrrolidin-2-yl]methoxy}-5H,6H,8H-pyri-do[3,4-d]pyrimidin-4-yl]-1-(prop-2-enoyl)piperazin-2-yl]acetonitrile]	< 100	100 to 1000
C=CC(=O)N1CCN(c2nc(OC[C@H]3CCN(C(=O)C4CCN(Cc5ccc(-n6c(O)nnc6-c6cc(C(C)C)c(O)cc6O)cc5)CC4)C3)nc3c2CCN(c2cccc4cccc(Cl)c24)C3)C[C@@H]1CC#N [Compound 184, 2-((S)-1-acryloyl-4-(7-(8-chloronaphthalen-1-yl)-2-(((S)-1-(1-(4-(3-(2,4-dihydroxy-5-isopropylphenyl)-5-hydroxy-4H-1,2,4-triazol-4-yl)benzyl)piperidine-4-carbonyl)pyrrolidin-3-yl)methoxy)-5,6,7,8-tetrahydropyrido[3,4-d]pyrimidin-4-yl)piperazin-2-yl)acetonitrile]	100 to 1000	100 to 1000
C=CC(=O)N1CCN(c2nc(OC[C@@H]3CCN(C(=O)C4CCN(Cc5ccc(-n6c(O)nnc6-c6cc(C)c(O)cc6O)cc5)CC4)C3)nc3c2CCN(c2cccc4cccc(Cl)c24)C3)C[C@@H]1CC#N [Compound 180, 2-((S)-1-acryloyl-4-(7-(8-chloronaphthalen-1-yl)-2-(((R)-1-(1-(4-(3-(2,4-dihydroxy-5-methylphenyl)-5-hydroxy-4H-1,2,4-triazol-4-yl)benzyl)piperidine-4-carbonyl)pyrrolidin-3-yl)methoxy)-5,6,7,8-tetrahydropyrido[3,4-d]pyrimidin-4-yl)piperazin-2-yl)acetonitrile]	100 to 1000	> 1000
C=CC(=O)N1CCN(c2nc(OC[C@@H]3CCN(CCCOCCC(=O)NCc4ccc(-n5c(O)nnc5-c5cc(C(C)C)c(O)cc5O)cc4)C3)nc3c2CCN(c2cccc4cccc(Cl)c24)C3)C[C@@H]1CC#N [Compound 182, 3-(3-((R)-3-(((4-((S)-4-acryloyl-3-(cyanomethyl)piperazin-1-yl)-7-(8-chloronaphthalen-1-yl)-5,6,7,8-tetrahydropyrido[3,4-d]pyrimidin-2-yl)oxy)methyl)pyrrolidin-1-yl)propoxy)-N-(4-(3-(2,4-dihydroxy-5-isopropylphenyl)-5-hydroxy-4H-1,2,4-triazol-4-yl)benzyl)propanamide]	< 100	> 1000
C=CC(=O)N1CCN(c2nc(OC[C@@H]3CCN(C(=O)c4ccc5c(c4)CN(C(=O)c4cc(C(C)C)c(O)cc4O)C5)C3)nc3c2CCN(c2cccc4cccc(Cl)c24)C3)C[C@@H]1CC#N [Compound 175, 2-((S)-1-acryloyl-4-(7-(8-chloronaphthalen-1-yl)-2-(((R)-1-(2-(2,4-dihydroxy-5-isopropylbenzoyl)isoindoline-5-carbonyl)pyrrolidin-3-yl)methoxy)-5,6,7,8-tetrahydropyrido[3,4-d]pyrimidin-4-yl)piperazin-2-yl)acetonitrile]	> 1000	–
C=CC(=O)N1CCN(c2nc(OC[C@@H]3CCN(C(=O)c4ccc5c(c4)CN(C(=O)c4cc(CC)c(O)cc4O)C5)C3)nc3c2CCN(c2cccc4cccc(Cl)c24)C3)C[C@@H]1CC#N [Compound 176, 2-((S)-1-acryloyl-4-(7-(8-chloronaphthalen-1-yl)-2-(((R)-1-(2-(5-ethyl-2,4-dihydroxybenzoyl)isoindoline-5-carbonyl)pyrrolidin-3-yl)methoxy)-5,6,7,8-tetrahydropyrido[3,4-d]pyrimidin-4-yl)piperazin-2-yl)acetonitrile]	> 1000	–
CC(C)c1cc(-c2nnc(O)n2-c2ccc(CN3CCC(C(=O)N4CC[C@@H](COc5nc6c(c(N7CCN(C(=O)C(F)(F)F)[C@@H](CC#N)C7)n5)CCN(c5cccc7cccc(Cl)c57)C6)C4)CC3)cc2)c(O)cc1O [Compound 177, 2-((S)-4-(7-(8-chloronaphthalen-1-yl)-2-(((R)-1-(1-(4-(3-(2,4-dihydroxy-5-isopropylphenyl)-5-hydroxy-4H-1,2,4-triazol-4-yl)benzyl)piperidine-4-carbonyl)pyrrolidin-3-yl)methoxy)-5,6,7,8-tetrahydropyrido[3,4-d]pyrimidin-4-yl)-1-(2,2,2-trifluoroacetyl)piperazin-2-yl)acetonitrile]	100 to 1000	–
C=CC(=O)N1CCN(c2nc(OCC3(CN4CCN(Cc5ccc(-n6c(O)nnc6-c6cc(C(C)C)c(O)cc6O)cc5)CC4)CC3)nc3c2CCN(c2cccc(C)c2C)C3)C[C@@H]1CC#N [Compound 292, 2-[(2S)-4-{2-[(1-{[4-({4-[3-(2,4-dihydroxy-5-isopropylphenyl)-5-hydroxy-1,2,4-triazol-4-yl]phenyl}methyl)piperazin-1-yl]methyl}cyclopropyl)methoxy]-7-(2,3-dimethylphenyl)-5H,6H,8H-pyrido[3,4-d]pyrimidin-4-yl}-1-(prop-2-enoyl)piperazin-2-yl]acetonitrile]	–	100 to 1000
C=CC(=O)N1CCN(c2nc(OCC3(CN4CCN(Cc5ccc(-n6c(C(=O)NCC)nnc6-c6cc(C(C)C)c(O)cc6O)cc5)CC4)CC3)nc3c2CCN(c2cccc(C)c2C)C3)C[C@@H]1CC#N [Compound 291, 4-(4-{[4-({1-[({4-[(3S)-3-(cyanomethyl)-4-(prop-2-enoyl)piperazin-1-yl]-7-(2,3-dimethylphenyl)-5H,6H,8H-pyrido[3,4-d]pyrimidin-2-yl}oxy)methyl]cyclopropyl}-methyl)piperazin-1-yl]methyl}phenyl)-5-(2,4-dihydroxy-5-isopropylphenyl)-N-et-hyl-1,2,4-triazole-3-carboxamide]	–	< 100
